The target in experiment [1] is T1, Sodium-dependent serotonin transporter (Homo sapiens, UniProt P31645). In words: Inhibitory activity against SERT.
Experiment [2] has as its target Sodium-dependent dopamine transporter (Homo sapiens, UniProt Q01959). In words: Inhibitory activity against DAT.
The target of experiment [3] is Sodium-dependent noradrenaline transporter (Homo sapiens, UniProt P23975). In words: Inhibitory activity against NET.
Experiment [4] deals with T1, Sodium-dependent serotonin transporter. In words: Displacement of [3H]paroxetine from SERT. (In general: Loss of bound radioactivity is the signal in a displacement assay; it reports binding, not function.)

The results in this text go back to ChEMBL document CHEMBL1138999, “Synthesis and in vitro evaluation of novel derivatives of diphenylsulfide as serotonin transporter ligands” (Bioorg Med Chem Lett, 2006).

Each structure is given as a SMILES string.

Chain of Sodium-dependent dopamine transporter (Q01959 whole entry): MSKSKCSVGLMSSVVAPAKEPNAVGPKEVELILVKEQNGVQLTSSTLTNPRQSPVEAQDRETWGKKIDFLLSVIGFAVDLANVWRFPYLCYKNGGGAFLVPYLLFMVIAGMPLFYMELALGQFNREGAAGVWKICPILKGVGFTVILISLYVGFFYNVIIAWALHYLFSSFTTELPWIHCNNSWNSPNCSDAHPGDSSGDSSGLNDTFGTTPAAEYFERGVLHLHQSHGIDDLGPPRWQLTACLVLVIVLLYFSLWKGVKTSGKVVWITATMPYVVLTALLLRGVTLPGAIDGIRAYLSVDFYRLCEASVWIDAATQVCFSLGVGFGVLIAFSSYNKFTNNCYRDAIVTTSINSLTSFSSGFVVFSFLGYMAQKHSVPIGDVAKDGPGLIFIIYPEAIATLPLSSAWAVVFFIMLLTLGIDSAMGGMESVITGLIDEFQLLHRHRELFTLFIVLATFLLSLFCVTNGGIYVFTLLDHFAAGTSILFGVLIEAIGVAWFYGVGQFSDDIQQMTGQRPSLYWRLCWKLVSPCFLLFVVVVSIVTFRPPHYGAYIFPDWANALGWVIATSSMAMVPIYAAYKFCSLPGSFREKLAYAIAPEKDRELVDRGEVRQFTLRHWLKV
Chain of Sodium-dependent noradrenaline transporter (P23975 whole entry): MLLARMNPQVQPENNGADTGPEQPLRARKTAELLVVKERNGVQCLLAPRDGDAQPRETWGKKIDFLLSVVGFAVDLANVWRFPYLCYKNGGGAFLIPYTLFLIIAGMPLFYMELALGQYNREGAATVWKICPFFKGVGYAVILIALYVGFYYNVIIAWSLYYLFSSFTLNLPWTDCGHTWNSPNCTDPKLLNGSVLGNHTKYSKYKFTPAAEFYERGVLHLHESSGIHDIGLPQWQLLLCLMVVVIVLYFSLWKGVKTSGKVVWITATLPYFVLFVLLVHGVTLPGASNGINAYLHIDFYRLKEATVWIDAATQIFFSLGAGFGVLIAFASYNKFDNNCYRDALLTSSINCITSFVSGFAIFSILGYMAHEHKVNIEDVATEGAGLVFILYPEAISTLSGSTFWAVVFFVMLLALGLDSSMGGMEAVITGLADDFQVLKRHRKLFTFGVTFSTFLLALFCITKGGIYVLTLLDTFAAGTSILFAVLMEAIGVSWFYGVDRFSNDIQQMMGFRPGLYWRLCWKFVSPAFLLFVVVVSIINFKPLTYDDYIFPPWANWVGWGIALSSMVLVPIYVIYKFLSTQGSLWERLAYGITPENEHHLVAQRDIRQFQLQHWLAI
T1 sequence (P31645 whole entry): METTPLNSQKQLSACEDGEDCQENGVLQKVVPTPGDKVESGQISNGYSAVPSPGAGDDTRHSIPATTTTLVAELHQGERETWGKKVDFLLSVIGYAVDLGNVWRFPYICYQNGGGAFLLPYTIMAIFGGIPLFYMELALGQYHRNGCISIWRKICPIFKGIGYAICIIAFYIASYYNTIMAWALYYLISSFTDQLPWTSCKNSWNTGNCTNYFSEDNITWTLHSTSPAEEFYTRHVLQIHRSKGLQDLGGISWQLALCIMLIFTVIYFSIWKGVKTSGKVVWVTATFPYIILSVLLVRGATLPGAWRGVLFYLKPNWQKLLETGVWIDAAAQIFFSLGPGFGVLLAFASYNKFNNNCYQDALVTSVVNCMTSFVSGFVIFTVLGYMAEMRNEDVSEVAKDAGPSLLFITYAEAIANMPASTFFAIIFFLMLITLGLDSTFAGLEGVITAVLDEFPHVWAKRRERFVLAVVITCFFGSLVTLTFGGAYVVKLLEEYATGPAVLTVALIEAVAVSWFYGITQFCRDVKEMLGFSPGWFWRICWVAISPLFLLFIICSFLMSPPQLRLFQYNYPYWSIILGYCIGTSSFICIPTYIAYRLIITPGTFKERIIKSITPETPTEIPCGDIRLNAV

For orientation: IC50 means the concentration that gives 50% inhibition. Lower therefore signals inhibition by little substance. Take `Cc1ccc(C(=O)c2ccccc2CN(C)C)c(N)c1`: the IC50 in experiment [1], in experiment [2] and in experiment [3] was > 0.1 µM in each case.

As for `Cc1ccc(N)c(-c2ccccc2CN(C)C)c1`, the IC50 in experiment [1], in experiment [2] and in experiment [3] was > 0.1 µM each time.

For orientation: Ki means the equilibrium dissociation constant of an inhibitor or competing ligand from its target. Lower therefore signals a stronger hold on the target. Turning to `Cc1ccc([S+]([O-])c2ccccc2CN(C)C)c(N)c1` (centres undefined), the Ki in experiment [4] is 0.00415 µM. Besides, the IC50 in experiment [2] and in experiment [3] was > 0.1 µM in each case.

`Cc1ccc(Oc2ccccc2CN(C)C)c(N)c1` displayed a Ki in experiment [4] of 0.00053 µM. In addition, the IC50 in experiment [2] and in experiment [3] was > 0.1 µM each time.

`Cc1ccc(C(O)c2ccccc2CN(C)C)c(N)c1` (centres undefined): the IC50 in experiment [1], in experiment [2] and in experiment [3] was > 0.1 µM throughout.

Take `CCN(c1ccc(C)cc1N)c1ccccc1CN(C)C`: the IC50 in experiment [1], in experiment [2] and in experiment [3] was > 0.1 µM each time.

Take `Cc1ccc(N(c2ccccc2)c2ccccc2CN(C)C)c(N)c1`: the IC50 in experiment [1], in experiment [2] and in experiment [3] was > 0.1 µM each time.

As for `COC(c1ccc(C)cc1N)c1ccccc1CN(C)C` (centres undefined), the IC50 in experiment [1], in experiment [2] and in experiment [3] was > 0.1 µM each time.

For `Cc1ccc(Sc2ccccc2CN(C)C)c(N)c1`, the Ki in experiment [4] came out at 0.00165 µM. In addition, the IC50 in experiment [2] and in experiment [3] was > 0.1 µM throughout.

For the compound `Cc1ccc(N(C)c2ccccc2CN(C)C)c(N)c1`, the IC50 in experiment [1], in experiment [2] and in experiment [3] was > 0.1 µM each time.

Regarding `Cc1ccc(N(Cc2ccccc2)c2ccccc2CN(C)C)c(N)c1`, the IC50 in experiment [1], in experiment [2] and in experiment [3] was > 0.1 µM in each case.

As to `Cc1ccc(S(=O)(=O)c2ccccc2CN(C)C)c(N)c1`, the IC50 in experiment [1], in experiment [2] and in experiment [3] was > 0.1 µM in each case.

Turning to `Cc1ccc(Nc2ccccc2CN(C)C)c(N)c1`, the Ki in experiment [4] was 0.0103 µM. Besides, the IC50 in experiment [2] and in experiment [3] was > 0.1 µM in each case.
